Results from the NIST ThermoML archive (doi:10.1021/je900370q).
Numbers after ± are expanded uncertainties.

Details: Crystal; DTA

Structure (SMILES)	Normal melting temperature
O=C(/C=C/c1ccc(-c2cccc([N+](=O)[O-])c2)o1)c1cccc([N+](=O)[O-])c1	180.00 ± 1 °C
O=C(/C=C/c1ccc(-c2cccc([N+](=O)[O-])c2)o1)c1ccco1	178.00 ± 1 °C
O=C(/C=C/c1ccc(-c2cccc([N+](=O)[O-])c2)o1)c1ccc([N+](=O)[O-])cc1	218.00 ± 1 °C
O=C(/C=C/c1ccc(-c2cccc([N+](=O)[O-])c2)o1)c1cc2ccccc2oc1=O	172.00 ± 1 °C
O=C(/C=C/c1ccc(-c2cccc([N+](=O)[O-])c2)o1)c1ccccc1 [(E)-3-(5-(3-nitrophenyl)furan-2-yl)-1-phenylprop-2-en-1-one]	142.00 ± 1 °C

Continued, values first:

Normal melting temperature	Structure (SMILES)
152.00 ± 1 °C	O=C(/C=C/c1ccc(-c2cccc([N+](=O)[O-])c2)o1)c1ccc(O)cc1
171.00 ± 1 °C	Nc1ccc(C(=O)/C=C/c2ccc(-c3cccc([N+](=O)[O-])c3)o2)cc1
141.00 ± 1 °C	COc1ccc(C(=O)/C=C/c2ccc(-c3cccc([N+](=O)[O-])c3)o2)cc1
170.00 ± 1 °C	O=C(/C=C/c1ccc(-c2cccc([N+](=O)[O-])c2)o1)c1ccc(Cl)cc1
160.00 ± 1 °C	O=C(/C=C/c1ccc(-c2cccc([N+](=O)[O-])c2)o1)c1ccc(Br)cc1
